Measured values reported in US20230278972A1, “SUBSTITUTED HALOALKYL SULFONANILIDE HERBICIDES” (FMC Corporation, priority 2020, published 2023).

Key:
Type in all cases: in vivo
[1] = tested on: barnyardgrass (Echinochloa crus-galli); experiment: Test A preemergence, barnyardgrass; conditions: Preemergence; for Barnyardgrass plant response rating: 125 g ai/ha, visual injury on 0 to 100 scale (0 no effect, 100 complete control), approximately 10 days; for Plant response rating, Barnyardgrass: 500 g ai/ha, 0 to 100 scale (0 no effect, 100 complete control)
Procedure, shortened: (§1)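 Test chemicals, formulated in a non-phytotoxic solvent mixture with surfactant, were sprayed postemergence on plants 2 to 10 cm tall at the one- to two-leaf stage. Preemergence treatment was a directed soil spray onto freshly seeded pots. Both used a loam soil and sand blend.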

[2] = tested on: Ryegrass, Italian (Italian ryegrass, Lolium multiflorum); experiment: Test A preemergence, Ryegrass, Italian; conditions: Preemergence; for Ryegrass, Italian plant response rating: 125 g ai/ha, visual injury on 0 to 100 scale (0 no effect, 100 complete control), approximately 10 days; for Plant response rating, Ryegrass, Italian: 500 g ai/ha, 0 to 100 scale (0 no effect, 100 complete control)
Procedure, shortened: as §1

kochia (Bassia scoparia) [3] = experiment: Test A postemergence, kochia; conditions: Postemergence, 0 to 100 scale (0 no effect, 100 complete control); for Plant response rating, Kochia: 125 g ai/ha, visual injury approx. 10 days; for Kochia plant response rating: 500 g ai/ha, visual injury vs untreated controls after approx. 10 days
Procedure, shortened: as §1

[4] = tested on: galium (catchweed bedstraw, Galium aparine); experiment: Test A postemergence, galium; conditions: Postemergence, 0 to 100 scale (0 no effect, 100 complete control); for Plant response rating, Galium: 125 g ai/ha, visual injury approx. 10 days; for Galium plant response rating: 500 g ai/ha, visual injury vs untreated controls after approx. 10 days
Procedure, shortened: (§2)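 Compounds in non-phytotoxic solvent with surfactant. Soil: loam/sand. Preemergence via directed soil spray after seeding; postemergence on seedlings 2–10 cm, one- to two-leaf.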

[5] = tested on: pigweed (Amaranthus retroflexus); experiment: Test A preemergence, pigweed; conditions: for Pigweed plant response rating: 125 g ai/ha, visual injury on 0 to 100 scale (0 no effect, 100 complete control), approximately 10 days; for Plant response rating, Pigweed: 500 g ai/ha, 0 to 100 scale (0 no effect, 100 complete control)
Procedure, shortened: as §2

[6] = tested on: Ryegrass, Italian (Italian ryegrass, Lolium multiflorum); experiment: Test A postemergence, Ryegrass, Italian; conditions: Postemergence, 0 to 100 scale (0 no effect, 100 complete control); for Plant response rating, Ryegrass, Italian: 125 g ai/ha, visual injury approx. 10 days; for Ryegrass, Italian plant response rating: 500 g ai/ha, visual injury vs untreated controls after approx. 10 days
Procedure, shortened: as §1

[7] = tested on: Foxtail, Giant (giant foxtail, Setaria faberi); experiment: Test A preemergence, Foxtail, Giant; conditions: Preemergence; for Foxtail, Giant plant response rating: 125 g ai/ha, visual injury on 0 to 100 scale (0 no effect, 100 complete control), approximately 10 days; for Plant response rating, Foxtail, Giant: 500 g ai/ha, 0 to 100 scale (0 no effect, 100 complete control)
Procedure, shortened: as §1

[8] = tested on: wheat (Triticum aestivum); experiment: Test A postemergence, wheat; conditions: Postemergence, 0 to 100 scale (0 no effect, 100 complete control); for Plant response rating, Wheat: 125 g ai/ha, visual injury approx. 10 days; for Wheat plant response rating: 500 g ai/ha, visual injury vs untreated controls after approx. 10 days
Procedure, shortened: as §2

[9] = tested on: barnyardgrass (Echinochloa crus-galli); experiment: Test A postemergence, barnyardgrass; conditions: Postemergence, 0 to 100 scale (0 no effect, 100 complete control); for Plant response rating, Barnyardgrass: 125 g ai/ha, visual injury approx. 10 days; for Barnyardgrass plant response rating: 500 g ai/ha, visual injury vs untreated controls after approx. 10 days
Procedure, shortened: as §2

[10] = tested on: blackgrass (Alopecurus myosuroides); experiment: Test A postemergence, blackgrass; conditions: Postemergence, 0 to 100 scale (0 no effect, 100 complete control); for Plant response rating, Blackgrass: 125 g ai/ha, visual injury approx. 10 days; for Blackgrass plant response rating: 500 g ai/ha, visual injury vs untreated controls after approx. 10 days
Procedure, shortened: as §1

[11] = tested on: pigweed (Amaranthus retroflexus); experiment: Test A postemergence, pigweed; conditions: Postemergence, 0 to 100 scale (0 no effect, 100 complete control); for Plant response rating, Pigweed: 125 g ai/ha, visual injury approx. 10 days; for Pigweed plant response rating: 500 g ai/ha, visual injury vs untreated controls after approx. 10 days
Procedure, shortened: as §1

[12] = tested on: Foxtail, Giant (giant foxtail, Setaria faberi); experiment: Test A postemergence, Foxtail, Giant; conditions: Postemergence, 0 to 100 scale (0 no effect, 100 complete control); for Plant response rating, Foxtail, Giant: 125 g ai/ha, visual injury approx. 10 days; for Foxtail, Giant plant response rating: 500 g ai/ha, visual injury vs untreated controls after approx. 10 days
Procedure, shortened: as §1

kochia (Bassia scoparia) [13] = experiment: Test A preemergence, kochia; conditions: Preemergence; for Kochia plant response rating: 125 g ai/ha, visual injury on 0 to 100 scale (0 no effect, 100 complete control), approximately 10 days; for Plant response rating, Kochia: 500 g ai/ha, 0 to 100 scale (0 no effect, 100 complete control)
Procedure, shortened: as §1

[14] = tested on: ragweed (common ragweed, Ambrosia artemisiifolia); experiment: Test A preemergence, ragweed; conditions: Preemergence; for Ragweed plant response rating: 125 g ai/ha, visual injury on 0 to 100 scale (0 no effect, 100 complete control), approximately 10 days; for Plant response rating, Ragweed: 500 g ai/ha, 0 to 100 scale (0 no effect, 100 complete control)
Procedure, shortened: as §1

corn (Zea mays) = experiment: Test A postemergence, corn; conditions: Postemergence, 0 to 100 scale (0 no effect, 100 complete control); for Plant response rating, Corn: 125 g ai/ha, visual injury approx. 10 days; for Corn plant response rating: 500 g ai/ha, visual injury vs untreated controls after approx. 10 days
Procedure, shortened: as §1

[15] = tested on: ragweed (common ragweed, Ambrosia artemisiifolia); experiment: Test A postemergence, ragweed; conditions: Postemergence, 0 to 100 scale (0 no effect, 100 complete control); for Plant response rating, Ragweed: 125 g ai/ha, visual injury approx. 10 days; for Ragweed plant response rating: 500 g ai/ha, visual injury vs untreated controls after approx. 10 days
Procedure, shortened: as §1

| Structure (SMILES) | Barnyardgrass plant response rating [1] | Plant response rating, Barnyardgrass [1] | Ryegrass, Italian plant response rating [2] | Plant response rating, Ryegrass, Italian [2] | Plant response rating, Kochia (kochia (Bassia scoparia) [3]) | Kochia plant response rating (kochia (Bassia scoparia) [3]) | Plant response rating, Galium [4] | Galium plant response rating [4] | Pigweed plant response rating [5] | Plant response rating, Pigweed [5] | Plant response rating, Ryegrass, Italian [6] | Ryegrass, Italian plant response rating [6] | Foxtail, Giant plant response rating [7] | Plant response rating, Foxtail, Giant [7] | Plant response rating, Wheat [8] | Wheat plant response rating [8] | Plant response rating, Barnyardgrass [9] | Barnyardgrass plant response rating [9] | Plant response rating, Blackgrass [10] | Blackgrass plant response rating [10] | also measured |
| --- | --- | --- | --- | --- | --- | --- | --- | --- | --- | --- | --- | --- | --- | --- | --- | --- | --- | --- | --- | --- | --- |
| CCn1nccc(-c2cc(NS(=O)(=O)C(F)(F)F)c(C)cc2F)c1=O [Compound 55] | 0 | 100 | 70 | 90 | 60 | 80 | 90 | 90 | 70 | 90 | 50 | 60 | 60 | 100 | 20 | 70 | 30 | 40 | 0 | 20 | Plant response rating, Pigweed [11]: 20; Pigweed plant response rating [11]: 70; Plant response rating, Foxtail, Giant [12]: 20; Foxtail, Giant plant response rating [12]: 90; Kochia plant response rating (kochia (Bassia scoparia) [13]): 80; Plant response rating, Kochia (kochia (Bassia scoparia) [13]): 80; Ragweed plant response rating [14]: 20; Plant response rating, Ragweed [14]: 90; Plant response rating, Corn (corn (Zea mays)): 0; Corn plant response rating (corn (Zea mays)): 50; Plant response rating, Ragweed [15]: 20; Ragweed plant response rating [15]: 40 |
| CCn1nc(Cl)cc(-c2cc(NS(=O)(=O)C(F)(F)F)c(C)cc2C)c1=O [Compound 51] | 100 | 100 | 90 | 100 | 10 | 60 | 40 | 60 | 80 | 90 | 70 | 80 | 100 | 100 | 50 | 60 | 30 | 80 | 20 | 70 | Plant response rating, Pigweed [11]: 60; Pigweed plant response rating [11]: 80; Plant response rating, Foxtail, Giant [12]: 30; Foxtail, Giant plant response rating [12]: 80; Kochia plant response rating (kochia (Bassia scoparia) [13]): 80; Plant response rating, Kochia (kochia (Bassia scoparia) [13]): 90; Ragweed plant response rating [14]: 60; Plant response rating, Ragweed [14]: 90; Plant response rating, Corn (corn (Zea mays)): 0; Corn plant response rating (corn (Zea mays)): 20; Plant response rating, Ragweed [15]: 50; Ragweed plant response rating [15]: 80 |
| Cc1cc(C)c(-c2ccnn(CC(F)(F)F)c2=O)cc1NS(=O)(=O)C(F)(F)F [Compound 57] | 100 | 100 | 90 | 90 | 0 | 20 | 80 | 90 | 50 | 80 | 30 | 90 | 100 | 100 | 60 | 70 | 40 | 90 | 0 | 70 | Plant response rating, Pigweed [11]: 0; Pigweed plant response rating [11]: 50; Plant response rating, Foxtail, Giant [12]: 30; Foxtail, Giant plant response rating [12]: 90; Kochia plant response rating (kochia (Bassia scoparia) [13]): 60; Plant response rating, Kochia (kochia (Bassia scoparia) [13]): 60; Ragweed plant response rating [14]: 40; Plant response rating, Ragweed [14]: 70; Plant response rating, Corn (corn (Zea mays)): 30; Corn plant response rating (corn (Zea mays)): 80; Plant response rating, Ragweed [15]: 0; Ragweed plant response rating [15]: 30 |
